Key:
PI3Kδ = molecular target: T1, PI3Kδ (Homo sapiens, UniProt O00329); assay: ADP-Glo Lipid Kinase Assay, PI3Kδ kinase activity; assay type: biochemical; conditions: ratio of IC50 values
T1 construct: purchased Carna #11-103
Protocol: (§1) In this experiment, ADP-Glo Lipid Kinase Assay (Promega #V9102) from Promega was used. The lipid kinases PI3Kα/β/γ/δ catalyzed the ATP-to-ADP reaction in the presence of the substrate PIP2:3PS and ATP. The lipid kinase activity was characterized by measuring the ADP content in the reaction, and the half inhibition concentrations IC50 of the compounds on PI3Kα/β/γ/δ kinase activity were obtained.
(§2) Kinase reactions were carried out in white 384-well plates (Perkin Elmer #6007299). 2 μL of the compound of various concentrations diluted with ddH2O containing 1% DMSO was added to each well, and 2 μL of ddH2O containing 1% DMSO was added to positive control wells. Then 2 μL of 0.1 to 2 nM PI3K kinase solution diluted with 5× kinase buffer (HEPES 250 mM, MgCl2 15 mM, NaCl 250 mM, BSA 0.05%) was added to each well, and 2 μL of 5× kinase buffer was added to the negative control wells. 4 μL of 50 μM substrate PIP2:3PS (Promega #V1701) prepared with 10× Dilution buffer and ddH2O was added to all wells. Finally, 2 μL of 50 to 100 μM ATP solution diluted with water was added to start the reaction. After the reaction was carried out at room temperature for 90 to 120 minutes, 10 µL of ADP-Glo Reagent (containing 10 mM MgCl2) was added to each well, and the reaction was carried out at room temperature for 60 minutes to eliminate excess adenosine triphosphate (ATP) in the reaction. Then 20 μL of Kinase Detection Reagent was added to each well. After the reaction was carried out for 20 minutes at room temperature in the dark, the chemiluminescence was measured by BioTek Synergy H1 microplate reader.
(§3) The percentage inhibition data of the compound-treated well was calculated from positive control wells (DMSO control wells) and negative control wells (no kinase added) on the plate {% inhibition=100−[(test compound value−negative control value)]/(positive control value-negative control value)×100}. IC50 values were calculated using GraphPad prism and using a four-parameter nonlinear logistic formula to fit the data of different concentrations and corresponding percent inhibition.

PI3Kγ = molecular target: T2, PI3Kγ (Homo sapiens, UniProt P48736); assay: ADP-Glo Lipid Kinase Assay, PI3Kγ kinase activity; assay type: biochemical; conditions: ratio of IC50 values
T2 construct: purchased Thermofisher #PV4786
T2 sequence (P48736 whole entry): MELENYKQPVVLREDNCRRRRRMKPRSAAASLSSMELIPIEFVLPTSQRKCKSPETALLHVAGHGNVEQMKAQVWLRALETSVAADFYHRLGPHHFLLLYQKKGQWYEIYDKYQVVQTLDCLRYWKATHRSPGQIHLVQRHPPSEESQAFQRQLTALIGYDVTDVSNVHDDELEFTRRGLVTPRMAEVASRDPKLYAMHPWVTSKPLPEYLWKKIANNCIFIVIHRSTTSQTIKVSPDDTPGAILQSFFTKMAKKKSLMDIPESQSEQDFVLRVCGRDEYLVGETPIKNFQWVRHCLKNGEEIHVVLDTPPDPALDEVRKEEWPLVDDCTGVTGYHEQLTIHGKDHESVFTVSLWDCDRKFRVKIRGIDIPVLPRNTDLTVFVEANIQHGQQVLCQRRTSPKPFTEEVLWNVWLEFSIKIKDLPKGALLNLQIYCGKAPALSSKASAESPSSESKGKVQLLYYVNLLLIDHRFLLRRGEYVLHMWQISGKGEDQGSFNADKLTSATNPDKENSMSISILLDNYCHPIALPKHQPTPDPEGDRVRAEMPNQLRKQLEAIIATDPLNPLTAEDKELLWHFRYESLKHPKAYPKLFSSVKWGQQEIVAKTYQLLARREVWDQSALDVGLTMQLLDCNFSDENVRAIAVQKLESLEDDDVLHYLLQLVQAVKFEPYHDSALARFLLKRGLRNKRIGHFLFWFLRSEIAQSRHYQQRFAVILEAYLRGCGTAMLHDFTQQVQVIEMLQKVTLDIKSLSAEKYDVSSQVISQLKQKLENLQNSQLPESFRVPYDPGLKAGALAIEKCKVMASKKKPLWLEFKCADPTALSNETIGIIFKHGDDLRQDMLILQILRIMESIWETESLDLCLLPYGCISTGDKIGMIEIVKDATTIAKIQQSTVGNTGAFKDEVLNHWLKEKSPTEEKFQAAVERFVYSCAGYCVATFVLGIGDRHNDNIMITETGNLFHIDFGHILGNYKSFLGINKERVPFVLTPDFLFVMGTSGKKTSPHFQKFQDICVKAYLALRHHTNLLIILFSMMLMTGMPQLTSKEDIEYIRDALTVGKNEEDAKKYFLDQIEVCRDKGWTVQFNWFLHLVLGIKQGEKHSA
Protocol: as §1, §2, §3

MKN1 (E545K) = assay: Proliferation inhibition of PI3Kα mutant cancer cells, Cell Titer-Glo, MKN1; assay type: cell-based; conditions: Homo sapiens, MKN-1
Protocol: (§4) The proliferation inhibitory effect of the compounds of the examples on the PI3Kα mutant cancer cell lines (HCC1954, HGC-27 and MKN1) was detected by Cell Titer-Glo method. Cell lines were cultured in RPMI 1640 medium (Gibco #22400089) containing 10% FBS (Gibco #10091148) and 1% P/S (Hyclone #SV30010) under the condition of 37° C. and 5% CO2. The cells were collected before the experiment, and the cell density was adjusted after cell counting. The cells were seeded in a white 96-well plate (Corning #3610) at a density of 1000 to 10000 cells/well, and incubated in an incubator at 37° C. and 5% CO2 overnight. The prepared compound solutions of different concentrations and the corresponding solvent controls were added to the plate. The plate was again incubated in an incubator at 37° C. and 5% CO2 for 48 to 96 hours. Then the cell plate and its contents were equilibrated to room temperature. 20 to 100 μL of Cell Titer-Glo solution (Promega #G7573) was added to each well, and the plate was shaken and mixed well, then incubated at room temperature for 5 to 30 minutes in the dark. The chemiluminescence was measured by a SynergyH1 microplate reader from BioTek.
(§5) The percentage inhibition data of the compound-treated well was calculated from solvent control wells on the plate {% inhibition=100−([…])×100}. IC50 values were calculated using GraphPad prism and using a four-parameter nonlinear logistic formula to fit the data of different concentrations and corresponding percent inhibition.

PI3Kβ = molecular target: T3, PI3Kβ (Homo sapiens, UniProt P42338); assay: ADP-Glo Lipid Kinase Assay, PI3Kβ kinase activity; assay type: biochemical; conditions: ratio of IC50 values
T3 construct: purchased Carna #11-102
T3 sequence (P42338 whole entry): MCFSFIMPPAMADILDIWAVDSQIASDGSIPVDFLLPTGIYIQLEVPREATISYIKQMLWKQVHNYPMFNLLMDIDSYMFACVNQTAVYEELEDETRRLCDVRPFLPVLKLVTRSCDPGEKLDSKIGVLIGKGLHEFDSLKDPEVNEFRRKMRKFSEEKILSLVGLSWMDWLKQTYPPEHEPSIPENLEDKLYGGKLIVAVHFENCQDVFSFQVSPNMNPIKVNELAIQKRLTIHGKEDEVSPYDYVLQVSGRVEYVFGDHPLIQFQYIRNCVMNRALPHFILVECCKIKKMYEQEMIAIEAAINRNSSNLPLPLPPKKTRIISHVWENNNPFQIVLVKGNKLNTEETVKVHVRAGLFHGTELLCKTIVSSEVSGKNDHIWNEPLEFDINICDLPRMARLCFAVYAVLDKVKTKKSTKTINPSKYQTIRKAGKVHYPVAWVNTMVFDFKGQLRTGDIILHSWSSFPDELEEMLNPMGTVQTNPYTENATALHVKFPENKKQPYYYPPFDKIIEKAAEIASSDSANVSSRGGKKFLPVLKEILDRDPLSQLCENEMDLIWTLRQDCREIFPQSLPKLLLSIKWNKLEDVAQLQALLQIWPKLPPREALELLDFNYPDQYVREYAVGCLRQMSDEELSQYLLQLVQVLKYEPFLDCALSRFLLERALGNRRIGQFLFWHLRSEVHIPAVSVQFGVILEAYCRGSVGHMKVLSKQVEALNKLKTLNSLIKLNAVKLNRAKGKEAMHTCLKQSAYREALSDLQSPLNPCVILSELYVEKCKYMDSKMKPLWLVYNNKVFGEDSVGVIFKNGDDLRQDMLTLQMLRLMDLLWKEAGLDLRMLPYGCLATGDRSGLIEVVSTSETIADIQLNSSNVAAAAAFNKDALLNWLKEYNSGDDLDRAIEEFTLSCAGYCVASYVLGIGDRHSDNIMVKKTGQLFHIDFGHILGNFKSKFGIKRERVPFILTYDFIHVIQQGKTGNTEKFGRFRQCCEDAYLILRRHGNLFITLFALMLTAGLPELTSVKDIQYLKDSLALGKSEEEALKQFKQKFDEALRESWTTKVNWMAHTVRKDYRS
T3 sequence (P27986 whole entry partner): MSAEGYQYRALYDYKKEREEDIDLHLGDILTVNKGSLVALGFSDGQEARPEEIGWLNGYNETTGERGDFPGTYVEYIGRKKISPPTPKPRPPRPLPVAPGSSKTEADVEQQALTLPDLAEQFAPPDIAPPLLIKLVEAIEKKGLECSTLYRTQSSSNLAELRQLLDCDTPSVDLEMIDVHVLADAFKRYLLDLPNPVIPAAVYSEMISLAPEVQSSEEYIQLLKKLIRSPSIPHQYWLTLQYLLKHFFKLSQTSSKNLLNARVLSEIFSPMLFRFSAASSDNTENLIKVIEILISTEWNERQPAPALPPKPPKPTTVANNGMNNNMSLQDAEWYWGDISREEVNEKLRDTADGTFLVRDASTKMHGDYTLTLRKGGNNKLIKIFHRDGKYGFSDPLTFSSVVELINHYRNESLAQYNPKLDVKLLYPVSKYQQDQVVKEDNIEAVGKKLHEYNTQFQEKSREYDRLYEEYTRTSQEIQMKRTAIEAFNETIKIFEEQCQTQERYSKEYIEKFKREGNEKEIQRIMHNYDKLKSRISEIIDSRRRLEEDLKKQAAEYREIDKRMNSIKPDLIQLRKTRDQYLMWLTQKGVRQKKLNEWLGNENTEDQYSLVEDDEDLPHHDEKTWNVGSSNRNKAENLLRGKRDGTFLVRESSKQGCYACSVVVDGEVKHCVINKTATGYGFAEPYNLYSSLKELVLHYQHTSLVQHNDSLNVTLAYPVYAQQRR
Protocol: as §1, §2, §3

HGC-27 (E542K) = assay: Proliferation inhibition of PI3Kα mutant cancer cells, Cell Titer-Glo, HGC-27; assay type: cell-based; conditions: Homo sapiens
Protocol: as §4, §5

HCC1954 (H1047R) = assay: Proliferation inhibition of PI3Kα mutant cancer cells, Cell Titer-Glo, HCC1954; assay type: cell-based; conditions: Homo sapiens
Protocol: as §4, §5

T1 sequence (O00329 whole entry): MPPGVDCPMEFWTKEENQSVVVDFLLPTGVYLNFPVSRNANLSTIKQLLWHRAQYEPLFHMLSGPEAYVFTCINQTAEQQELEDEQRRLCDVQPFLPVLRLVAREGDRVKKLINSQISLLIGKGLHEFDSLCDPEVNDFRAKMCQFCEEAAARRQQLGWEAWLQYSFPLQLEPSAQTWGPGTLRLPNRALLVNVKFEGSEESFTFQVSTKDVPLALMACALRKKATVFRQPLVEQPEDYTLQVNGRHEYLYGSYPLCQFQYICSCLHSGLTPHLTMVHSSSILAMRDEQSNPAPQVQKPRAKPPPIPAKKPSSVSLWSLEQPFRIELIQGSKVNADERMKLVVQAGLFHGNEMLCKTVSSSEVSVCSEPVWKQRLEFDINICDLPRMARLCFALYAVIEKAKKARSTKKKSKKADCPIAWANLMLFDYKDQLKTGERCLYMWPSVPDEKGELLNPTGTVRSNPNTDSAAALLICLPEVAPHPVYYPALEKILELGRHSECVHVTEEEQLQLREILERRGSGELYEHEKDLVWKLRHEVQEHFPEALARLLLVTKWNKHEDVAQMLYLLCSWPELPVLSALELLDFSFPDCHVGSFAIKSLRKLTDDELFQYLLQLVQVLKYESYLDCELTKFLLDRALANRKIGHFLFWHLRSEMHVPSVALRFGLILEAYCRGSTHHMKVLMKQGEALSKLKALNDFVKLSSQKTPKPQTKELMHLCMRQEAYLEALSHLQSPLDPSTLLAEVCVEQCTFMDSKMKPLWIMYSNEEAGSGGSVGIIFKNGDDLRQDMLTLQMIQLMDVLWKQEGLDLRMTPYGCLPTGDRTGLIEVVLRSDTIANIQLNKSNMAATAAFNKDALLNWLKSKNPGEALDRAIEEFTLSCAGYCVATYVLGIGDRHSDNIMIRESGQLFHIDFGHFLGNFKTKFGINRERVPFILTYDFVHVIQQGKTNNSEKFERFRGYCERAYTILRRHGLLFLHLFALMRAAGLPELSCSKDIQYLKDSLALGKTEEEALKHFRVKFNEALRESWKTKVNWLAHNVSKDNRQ
T1 sequence (P27986 whole entry partner): as the sequence (P27986 whole entry partner) above

Compound | Selectivity of PI3Kα vs PI3Kδ (PI3Kδ) | Selectivity of PI3Kα vs PI3Kγ (PI3Kγ) | IC50 (MKN1 (E545K)) [nM] | Selectivity of PI3Kα vs PI3Kβ (PI3Kβ) | IC50 (HGC-27 (E542K)) [nM] | IC50 (HCC1954 (H1047R)) [nM]
C[C@H](Nc1ccc2c(c1)OCCn1cc(N3C(=O)CC[C@H]3C(F)F)nc1-2)C(N)=O [Example 46, (S)-2-((2-((S)-2-(difluoromethyl)-5-oxopyrrolidin-1-yl)-5,6-dihydrobenzo[f]imidazo[1,2-d][1,4]oxazepin-9-yl)amino)propionamide] | 90 | 243 | 268 | 785 | 186 | 184
CC(C)[C@H](Nc1ccc2c(c1)OCCn1cc(N3C(=O)OC[C@H]3C(F)F)nc1-2)C(N)=O [Example 14, (S)-2-((2-((S)-4-(difluoromethyl)-2-oxooxazolidin-3-yl)-5,6-dihydrobenzo[f]imidazo[1,2-d][1,4]oxazepin-9-yl)amino)-3-methylbutanamide] | 103 | 112 | 615 | 358 | 417 | 204
C[C@H](Nc1ccc2c(c1)OCCn1c-2nc(N2C(=O)OC[C@H]2C(F)F)c1F)C(N)=O [Example 1, (S)-2-((2-((S)-4-(difluoromethyl)-2-oxooxazolidin-3-yl)-3-fluoro-5,6-dihydrobenzo[f]imidazo[1,2-d][1,4]oxazepin-9-yl)amino)propionamide] | 177 | 226 | – | >1266 | – | –
C[C@@H](C(N)=O)N(C)c1ccc2c(c1)OCCn1cc(N3C(=O)OC[C@H]3C(F)F)nc1-2 [Example 19, (S)-2-((2-((S)-4-(difluoromethyl)-2-oxooxazolidin-3-yl)-5,6-dihydrobenzo[f]imidazo[1,2-d][1,4]oxazepin-9-yl)(methyl)amino)propionamide] | 29 | 648 | 214 | 329 | 169 | 112
C[C@@H](C(N)=O)N(C)c1ccc2c(c1)OCCn1cc(N3C(=O)SC[C@H]3C(F)F)nc1-2 [Example 54, (S)-2-((2-((R)-4-(difluoromethyl)-2-oxothiazolidin-3-yl)-5,6-dihydrobenzo[f]imidazo[1,2-d][1,4]oxazepin-9-yl)(methyl)amino)propionamide] | 31 | 217 | 42 | 238 | 32 | 29
C[C@H](Nc1ccc2c(c1F)OCCn1cc(N3C(=O)OC[C@H]3C(F)F)nc1-2)C(N)=O [Example 31, (S)-2-((2-((S)-4-(difluoromethyl)-2-oxooxazolidin-3-yl)-8-fluoro-5,6-dihydrobenzo[f]imidazo[1,2-d][1,4]oxazepin-9-yl)amino)propionamide] | 59 | 87 | 653 | 178 | 499 | 226
CC(Nc1ccc2c(c1)OCCn1cc(N3C(=O)OC(C)[C@H]3C(F)F)nc1-2)C(N)=O (stereo in doubt) [Example 26, (R)-2-((2-((4S,5R)-4-(difluoromethyl)-5-methyl-2-oxooxazolidin-3-yl)-5,6-dihydrobenzo[f]imidazo[1,2-d][1,4]oxazepin-9-yl)amino)propionamide] | 125 | 214 | 508 | 1101 | 325 | 160
COC[C@H](Nc1ccc2c(c1F)OCCn1cc(N3C(=O)SC[C@H]3C(F)F)nc1-2)C(N)=O [Example 51, (S)-2-((2-((R)-4(difluoromethyl)-2-oxothiazolidin-3-yl)-8-fluoro-5,6-dihydrobenzo[f]imidazo[1,2-d][1,4]oxazepin-9-yl)amino)-3-methoxypropionamide] | 51 | 170 | 426 | 157 | 455 | 243
NC(=O)[C@@H]1CCN1c1ccc2c(c1)OCCn1cc(N3C(=O)OC[C@H]3C(F)F)nc1-2 [Example 21, (S)-1-(2-((S)-4-(difluoromethyl)-2-oxooxazolidin-3-yl)-5,6-dihydrobenzo[f]imidazo[1,2-d][1,4]oxazepin-9-yl)azetidine-2-carboxamide] | – | – | 399 | – | 396 | 205
C[C@H](Nc1cc(F)c2c(c1)OCCn1cc(N3C(=O)OC[C@H]3C(F)F)nc1-2)C(N)=O [Example 32, (S)-2-((2-((S)-4-(difluoromethyl)-2-oxooxazolidin-3-yl)-11-fluoro-5,6-dihydrobenzo[f]imidazo[1,2-d][1,4]oxazepin-9-yl)amino)propionamide] | 88 | 98 | – | 536 | – | –
NC(=O)[C@@H]1CCCN1c1ccc2c(c1)OCCn1cc(N3C(=O)SC[C@H]3C(F)F)nc1-2 [Example 53, (S)-1-(2-((R)-4-(difluoromethyl)-2-oxothiazolidin-3-yl)-5,6-dihydrobenzo[f]imidazo[1,2-d][1,4]oxazepin-9-yl)pyrrolidine-2-carboxamide] | 43 | 254 | 66 | 423 | 77 | 40
COC[C@H](Nc1ccc2c(c1)OCCn1cc(N3C(=O)OC[C@H]3C(F)F)nc1-2)C(N)=O [Example 43, (S)-2-((2-((S)-4-(difluoromethyl)-2-oxooxazolidin-3-yl)-5,6-dihydrobenzo[f]imidazo[1,2-d][1,4]oxazepin-9-yl)amino)-3-methoxypropionamide] | – | – | 368 | – | 531 | 222
C[C@H](Nc1ccc2c(c1)OCCn1cc(N3C(=O)N(C)C[C@H]3C(F)F)nc1-2)C(N)=O [Example 24, (S)-2-((2-((S)-5-(difluoromethyl)-3-methyl-2-oxoimidazolidin-1-yl)-5,6-dihydrobenzo[f]imidazo[1,2-d][1,4]oxazepin-9-yl)amino)propionamide] | 75 | 80 | – | 1238 | – | –
